Data: patent publication US20200399262A1, “COMPOUNDS FOR INHIBITING PROTEIN DEGRADATION AND METHODS OF USE THEREOF IN THE TREATMENT OF CANCER” (PI Therapeutics Ltd, priority 2018, published 2020)
pEC50: −log10 of the molar value.

Key:
Type in all cases: cell-based
A375 = experiment: Cell viability panel, ATPlite 1Step; conditions: Homo sapiens, A-375, Amelanotic melanoma, 72 h exposure, read-out: Compound EC50
Procedure, shortened: (§1)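 ATPlite: optimal density 200-6400 cells/well, ATCC medium, 8 conc 0.04-32 μM, 72 h. CyQUANT: 24 h pre-seed, 5,000-40,000 cells/well, RPMI 1640 + 10% FBS + 2 mM Gln, 0.04-1 μM, 48 h 37° C., EC50 from [(Ti−Tz)/(C−Tz)]×100.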

AN3 CA = experiment: Cell viability panel, ATPlite 1Step; conditions: Homo sapiens, Endometrial adenocarcinoma, 72 h exposure, read-out: Compound EC50
Procedure, shortened: as §1

BxPC-3 = experiment: Cell viability panel, ATPlite 1Step; conditions: Homo sapiens, Pancreatic ductal adenocarcinoma, 72 h exposure, read-out: Compound EC50
Procedure, shortened: as §1

C-33 A = experiment: Cell viability panel, ATPlite 1Step; conditions: Homo sapiens, Cervical squamous cell carcinoma, 72 h exposure, read-out: Compound EC50
Procedure, shortened: as §1

Daoy = experiment: Cell viability panel, ATPlite 1Step; conditions: Homo sapiens, Medulloblastoma, 72 h exposure, read-out: Compound EC50
Procedure, shortened: as §1

ES-2 = experiment: Cell viability panel, ATPlite 1Step; conditions: Homo sapiens, Ovarian clear cell adenocarcinoma, 72 h exposure, read-out: Compound EC50
Procedure, shortened: as §1

HL-60 [1] = experiment: Cell viability panel, ATPlite 1Step; conditions: Homo sapiens, Acute myeloid leukemia, 72 h exposure, read-out: Compound EC50
Procedure, shortened: as §1

Hs 746T = experiment: Cell viability panel, ATPlite 1Step; conditions: Homo sapiens, Hs746T, Gastric adenocarcinoma, 72 h exposure, read-out: Compound EC50
Procedure, shortened: as §1

Hs 766T = experiment: Cell viability panel, ATPlite 1Step; conditions: Hs766T, Pancreatic adenocarcinoma, 72 h exposure, read-out: Compound EC50
Procedure, shortened: as §1

MG-63 = experiment: Cell viability panel, ATPlite 1Step; conditions: Homo sapiens, Osteosarcoma, 72 h exposure, read-out: Compound EC50
Procedure, shortened: as §1

MIA PaCa-2 = experiment: Cell viability panel, ATPlite 1Step; conditions: Homo sapiens, Pancreatic ductal adenocarcinoma, 72 h exposure, read-out: Compound EC50
Procedure, shortened: as §1

MOLT-4 = experiment: Cell viability panel, ATPlite 1Step; conditions: Homo sapiens, T acute lymphoblastic leukemia, 72 h exposure, read-out: Compound EC50
Procedure, shortened: as §1

NCI-H661 = experiment: Cell viability panel, ATPlite 1Step; conditions: Homo sapiens, Large cell lung carcinoma, 72 h exposure, read-out: Compound EC50
Procedure, shortened: as §1

RKO = experiment: Cell viability panel, ATPlite 1Step; conditions: Homo sapiens, Colon carcinoma, 72 h exposure, read-out: Compound EC50
Procedure, shortened: as §1

RPMI-7951 = experiment: Cell viability panel, ATPlite 1Step; conditions: Homo sapiens, Melanoma, 72 h exposure, read-out: Compound EC50
Procedure, shortened: as §1

SW48 = experiment: Cell viability panel, ATPlite 1Step; conditions: Homo sapiens, Colon adenocarcinoma, 72 h exposure, read-out: Compound EC50
Procedure, shortened: as §1

SW872 = experiment: Cell viability panel, ATPlite 1Step; conditions: Homo sapiens, Liposarcoma, 72 h exposure, read-out: Compound EC50
Procedure, shortened: as §1

SW948 = experiment: Cell viability panel, ATPlite 1Step; conditions: Homo sapiens, Colon adenocarcinoma, 72 h exposure, read-out: Compound EC50
Procedure, shortened: as §1

TCCSUP = experiment: Cell viability panel, ATPlite 1Step; conditions: Homo sapiens, TCC-SUP, Bladder carcinoma, 72 h exposure, read-out: Compound EC50
Procedure, shortened: as §1

THP-1 = experiment: Cell viability panel, ATPlite 1Step; conditions: Homo sapiens, Acute monocytic leukemia, 72 h exposure, read-out: Compound EC50
Procedure, shortened: as §1

TT = experiment: Cell viability panel, ATPlite 1Step; conditions: Homo sapiens, Hereditary thyroid gland medullary carcinoma, 72 h exposure, read-out: Compound EC50
Procedure, shortened: as §1

U-118 MG = experiment: Cell viability panel, ATPlite 1Step; conditions: Homo sapiens, Astrocytoma, 72 h exposure, read-out: Compound EC50
Procedure, shortened: as §1

U-87 MG = experiment: Cell viability panel, ATPlite 1Step; conditions: Homo sapiens, Glioblastoma, 72 h exposure, read-out: Compound EC50
Procedure, shortened: as §1

VA-ES-BJ = experiment: Cell viability panel, ATPlite 1Step; conditions: Epithelioid sarcoma, 72 h exposure, read-out: Compound EC50
Procedure, shortened: as §1

HL-60 [2] = experiment: NCI60 screen cytotoxicity; conditions: Homo sapiens, Leukemia, read-out: Compound B1 EC50
NCI-H522 = experiment: NCI60 screen cytotoxicity; conditions: Homo sapiens, Lung cancer, read-out: Compound B1 EC50
PC-3 = experiment: NCI60 screen cytotoxicity; conditions: Homo sapiens, Prostate cancer, read-out: Compound B1 EC50
SK-MEL-2 = experiment: NCI60 screen cytotoxicity; conditions: Homo sapiens, Melanoma, read-out: Compound B1 EC50
UACC-257 = experiment: NCI60 screen cytotoxicity; conditions: Homo sapiens, Melanoma, read-out: Compound B1 EC50
SF-295 = experiment: NCI60 screen cytotoxicity; conditions: Homo sapiens, CNS, read-out: Compound B1 EC50

**Q.** With `CN(C)CCCS(=O)(=O)N1C/C(=C\c2ccc(C#N)cc2)C(=O)/C(=C/c2ccc(C#N)cc2)C1` [Compound AA] as the compound, how does the pEC50 (A375) read?
**A.** > 6.52

**Q.** And the pEC50 (AN3 CA)?
**A.** > 6.52

**Q.** And the pEC50 (BxPC-3)?
**A.** > 6.52

**Q.** And the pEC50 (C-33 A)?
**A.** > 6.52

**Q.** What about the pEC50 (Daoy) of the same compound?
**A.** > 6.52

**Q.** And the pEC50 (ES-2)?
**A.** > 6.52

**Q.** What about the pEC50 (HL-60 [1]) of the same compound?
**A.** > 6.52

**Q.** What about the pEC50 (Hs 746T) of the same compound?
**A.** > 6.52

**Q.** What about the pEC50 (Hs 766T) of the same compound?
**A.** 6.00 to 6.52

**Q.** And the pEC50 (MG-63)?
**A.** > 6.52

**Q.** What about the pEC50 (MIA PaCa-2) of the same compound?
**A.** 6.00 to 6.52

**Q.** What about the pEC50 (MOLT-4) of the same compound?
**A.** > 6.52

**Q.** And the pEC50 (NCI-H661)?
**A.** 6.00 to 6.52

**Q.** And the pEC50 (RKO)?
**A.** > 6.52

**Q.** And the pEC50 (RPMI-7951)?
**A.** > 6.52

**Q.** What about the pEC50 (SW48) of the same compound?
**A.** 6.00 to 6.52

**Q.** What about the pEC50 (SW872) of the same compound?
**A.** > 6.52

**Q.** And the pEC50 (SW948)?
**A.** > 6.52

**Q.** And the pEC50 (TCCSUP)?
**A.** > 6.52

**Q.** And the pEC50 (THP-1)?
**A.** 6.00 to 6.52

**Q.** And the pEC50 (TT)?
**A.** 6.00 to 6.52

**Q.** And the pEC50 (U-118 MG)?
**A.** > 6.52

**Q.** And the pEC50 (U-87 MG)?
**A.** > 6.52

**Q.** What about the pEC50 (VA-ES-BJ) of the same compound?
**A.** > 6.52

**Q.** Which results are given for `CN(C)CC(=O)NCC(=O)N1C/C(=C\c2ccc(C#N)cc2)C(=O)/C(=C/c2ccc(C#N)cc2)C1` [Compound B1]?
**A.** pEC50 (HL-60 [2]): > 6.52; pEC50 (NCI-H522): > 6.52; pEC50 (PC-3): > 6.52; pEC50 (SK-MEL-2): > 6.52; pEC50 (UACC-257): 6.00 to 6.52; pEC50 (SF-295): > 6.52
